Legend:
nits = test: Nit-killing activity of volatile silicone oil itself (stated, no method); type: in vivo, Pediculus humanus var capitis
lice = test: Pediculicidal activity of volatile silicone oil itself (stated, no method); type: in vivo, Pediculus humanus var capitis
[1] = Stability of malathion compositions, degradation measured by HPLC; type: physicochemical
Procedure: The inventors measured malathion degradation by HPLC. The HPLC method was reverse-phase HPLC with UV detection (210 nm). The column used is an xTERRA C18 with a water/acetonitrile gradient and a flow rate of 0.6 ml/min. The malathion compositions tested comprise either malathion on its own, or a composition of 50% malathion and 50% isopropanol, or a composition of 50% malathion and 50% polydimethylcyclosiloxane, or a composition of 33% malathion with 33% isopropanol and 33% polydimethylcyclosiloxane. These compositions also contain excipients such as povidone as viscosity agent.
The stability of these compositions was assessed for 114 hours at 60° Celsius (Table 1).

Row | Structure (SMILES) | nit-killing activity (nits) | pediculicidal activity (lice) | Malathion content (%) ([1]; T0) | Malathion content (%) ([1]; T 72 hrs 60° C.) | Malathion loss (%) ([1]; T 72 hrs 60° C.) | Malathion content (%) ([1]; T 114 hrs 60° C.) | Malathion loss (%) ([1]; T 114 hrs 60° C.)
1 | C[Si]1(C)O[Si](C)(C)O[Si](C)(C)O[Si](C)(C)O[Si](C)(C)O1 [decamethylcyclopentasiloxane] | ~70% | 100% |  |  |  |  | 
2 | CCOC(=O)CC(SP(=S)(OC)OC)C(=O)OCC (stereo not shown) [Malathion alone, malathion] |  |  | 100.90% | 100.3% | (−0.1) % | 91% | (−9.8) %
